Assay results as given in patent US9434714B2, “Pyrimidine imidazole amines as modulators of kinase activity” (Merck Patent GmbH, priority 2014, dated 2016).

Tests used:
His-AKT (Full Length) = target: T1, His-AKT (Full Length) (Homo sapiens, UniProt P31749); experiment: AKT enzyme assay; type: biochemical; conditions: 160 uM ATP, 90 min at 25 C, off-chip mobility shift (Caliper)
T1 construct: His-AKT (Full Length); His; purchased Invitrogen P2999
Experimental: A TTP Mosquito liquid handling instrument was used to place 125 nl of the appropriate concentration of inhibitor in 100% DMSO (for a dose response curve calculation) into each well of a 384-well plate. To this reaction components were added to a final volume of 12.5 μl: • 0.1 ng/μ1 His-AKT (Full Length), (Invitrogen, Part # P2999, Lot #641228C). • 160 uM ATP (Fluka, 02055) • 1 mM DTT (Sigma, D0632) • 1 mM MgCl2 (Sigma, M1028) • 1 μM substrate peptide (sequence FITC-AHA-GRPRTSSFAEG-NH2), synthesized by Tufts Peptide Synthesis service. • 100 mM HEPES pH 7.5 (Calbiochem, 391338) • 0.015% Brij-35 (Sigma, B4184)
The reaction was incubated for 90 min at 25 C, and then stopped by the addition of 70 μl of Stop buffer (100 mM HEPES pH 7.5, 0.015% Brij-35, 10 mM EDTA (Sigma, E7889)).
The plate was read on a Caliper LC 3000 in an Off-Chip mobility shift assay format, using the following parameters for a 12-sipper chip: screening pressure—2.3 psi, upstream voltage—500, and downstream voltage—3000. These conditions cause unphosphorylated substrate and phosphorylated product peptide to resolve as separate peaks allowing direct measurement of percentage of conversion of substrate to product. The percent conversion was plotted against concentration of inhibitor to produce a sigmoidal dose response curve, from which an IC50 was calculated.

P70S6K (T412E mutant) = target: T2, P70S6K (T412E mutant) (Homo sapiens, UniProt P23443, T412E); experiment: P70S6K enzyme assay; type: biochemical; conditions: 24 μM ATP, 90 min at 25° C., mobility shift (Caliper)
T2 construct: purchased Millipore
Experimental: P70S6K inhibitor compounds were diluted and plated in 96 well plates. A reaction mixture including the following components was then added to the compound plate to initiate the enzyme reaction; P70S6K (3 nM, T412E mutant, Millipore) was mixed with 24 μM ATP in an assay buffer containing 100 mM Hepes (pH 7.5), 5 mM MgCl2, 1 mM DTT, 0.015% Brij and 1 μM of the substrate peptide FITC-AHA-AKRRRLSSLRA-OH (derived from the S6 ribosomal protein sequence, FITC=fluorescein isothiocyanate, AHA=6-aminohexanoic acid). The reaction was incubated for 90 min at 25° C., before the addition of 10 mM EDTA to stop the reaction. The proportion of substrate and product (phosphorylated) peptide was analysed on a Caliper Life Sciences Lab Chip 3000, using a pressure of −1.4 psi, and upstream and downstream voltages of −3000 and −700 respectively. Product peaks were resolved before substrate peaks on the resulting chromatograms.

T2 sequence (P23443 whole entry T412E): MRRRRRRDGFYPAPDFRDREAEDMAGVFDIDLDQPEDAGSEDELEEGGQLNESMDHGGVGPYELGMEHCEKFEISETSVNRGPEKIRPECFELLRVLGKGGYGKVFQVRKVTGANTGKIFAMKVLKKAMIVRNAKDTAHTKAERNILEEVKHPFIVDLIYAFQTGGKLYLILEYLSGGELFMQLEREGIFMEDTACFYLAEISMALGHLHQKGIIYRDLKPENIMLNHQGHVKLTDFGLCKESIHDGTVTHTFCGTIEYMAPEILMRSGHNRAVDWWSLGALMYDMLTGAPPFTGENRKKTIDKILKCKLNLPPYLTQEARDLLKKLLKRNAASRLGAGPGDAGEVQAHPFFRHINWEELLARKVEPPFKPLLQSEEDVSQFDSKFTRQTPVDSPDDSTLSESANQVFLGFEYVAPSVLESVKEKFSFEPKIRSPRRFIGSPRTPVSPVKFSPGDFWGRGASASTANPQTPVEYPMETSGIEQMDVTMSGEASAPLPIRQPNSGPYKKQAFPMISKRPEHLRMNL
T1 sequence (P31749 whole entry): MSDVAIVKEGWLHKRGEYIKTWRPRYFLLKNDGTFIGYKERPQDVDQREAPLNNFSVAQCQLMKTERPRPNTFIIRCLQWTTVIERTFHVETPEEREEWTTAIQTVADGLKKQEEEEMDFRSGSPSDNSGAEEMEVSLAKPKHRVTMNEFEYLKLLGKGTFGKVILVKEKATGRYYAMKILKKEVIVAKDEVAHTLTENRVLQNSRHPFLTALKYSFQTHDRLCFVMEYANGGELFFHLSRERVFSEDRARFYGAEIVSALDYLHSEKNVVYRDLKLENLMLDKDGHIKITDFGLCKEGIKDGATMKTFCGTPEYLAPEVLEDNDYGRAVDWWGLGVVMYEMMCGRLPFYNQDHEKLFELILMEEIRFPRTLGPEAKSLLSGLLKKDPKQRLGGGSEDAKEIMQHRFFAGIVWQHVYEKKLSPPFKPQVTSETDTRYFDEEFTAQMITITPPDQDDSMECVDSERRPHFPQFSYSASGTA

IC50 (His-AKT (Full Length)) | IC50 (P70S6K (T412E mutant)) | Compound
> 15 nM | > 15 nM | CN(C)CCn1cc(-c2ccnc(C(F)(F)F)c2)nc1C1CCN(c2ncnc(N)c2C(N)=O)CC1 [Compound 30]
3 to 15 nM | 3 to 15 nM | CCNCCn1cc(-c2ccc(F)c(C(F)(F)F)c2)nc1C1CCN(c2ncnc(N)c2C(C)C)CC1 [Compound 31, 6-{4-[1-(2-Ethylamino-ethyl)-4-(4-fluoro-3-trifluoromethyl-phenyl)-1H-imidazol-2-yl]-piperidin-1-yl}-5-isopropyl-pyrimidin-4-ylamine]
3 to 15 nM | < 3 nM | Cc1cc(-c2cn(CCNCCCCl)c(C3CCN(c4ncnc(N)c4C(C)C)CC3)n2)ccc1F [Compound 32, 6-{4-[1-[2-(3-Chloro-propylamino)-ethyl]-4-(4-fluoro-3-methyl-phenyl)-1H-imidazol-2-yl]-piperidin-1-yl}-5-isopropyl-pyrimidin-4-ylamine]
